In the test the target is T1, OCTN2 (Homo sapiens, UniProt O76082).
T1 construct: gene SLC22A5
T1 sequence (O76082 1-557): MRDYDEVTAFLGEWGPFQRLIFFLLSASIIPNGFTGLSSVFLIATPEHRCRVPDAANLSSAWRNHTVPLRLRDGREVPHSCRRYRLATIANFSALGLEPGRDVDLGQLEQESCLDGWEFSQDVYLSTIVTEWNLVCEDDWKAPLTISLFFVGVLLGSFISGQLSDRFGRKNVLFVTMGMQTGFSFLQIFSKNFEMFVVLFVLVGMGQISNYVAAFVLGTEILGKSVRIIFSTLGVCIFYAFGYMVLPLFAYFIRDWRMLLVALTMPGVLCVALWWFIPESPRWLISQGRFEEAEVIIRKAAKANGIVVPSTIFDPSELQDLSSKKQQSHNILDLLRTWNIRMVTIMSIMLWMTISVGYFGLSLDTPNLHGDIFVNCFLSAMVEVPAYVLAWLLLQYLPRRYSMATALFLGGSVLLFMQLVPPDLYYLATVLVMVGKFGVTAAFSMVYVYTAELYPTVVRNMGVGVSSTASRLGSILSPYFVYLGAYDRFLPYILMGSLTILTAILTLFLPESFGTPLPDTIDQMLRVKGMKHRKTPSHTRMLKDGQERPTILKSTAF
In words: inhibition of [3H]-acetyl-L-carnitine uptake in ATI-like and A549 cells at […] (uptake reduced to […] in A549). It is filed as cell-based. As to conditions: read-out: % of control uptake at 500 μM.

Regarding `C[N+](C)(C)C[C@@H](O)CC(=O)[O-]` [D-carnitine], the remaining activity at 500 µM turned out to be 25.8 ± 1.3%.
